Laboratory results as given in patent publication US7312240B2, “Conformationally constrained paclitaxel analogs and their use as anticancer and anti-Alzheimers agents” (Virginia Tech Intellectual Properties, Inc., priority 2004, dated 2007).

Legend:
[1] = system: A2780 ovarian cancer cell line; assay: Cytotoxicity against A2780 ovarian cancer cell line; details: A2780, relative to PTX
[2] = system: paclitaxel resistant and epothilone A resistant cell lines; assay: Activity against paclitaxel resistant and epothilone A resistant cell lines; format: cell-based
[3] = system: PC-3 prostate cell line; assay: Cytotoxicity against PC3 prostate cancer cell line; details: PC3
[4] = system: A2780 ovarian cancer cell line; details: meta-bridged analogs, earlier work (Org. Lett. 2001, 3, 2461); cited from earlier work

Row | SMILES | times more potent/active than PTX against A2780 [1] | times better activity than paclitaxel [2] [times] | cytotoxicity against PC3 in words, compared with PTX/Taxol [3] | potency as cytotoxins, fold less than Taxol/PTX [4]
1 | CC(=O)O[C@H]1C(=O)[C@@]2(C)[C@@H]3[C@H](OC(=O)c4ccccc4)[C@]4(O)C[C@H](OC(=O)[C@H](O)[C@@H](NC(=O)c5ccccc5)c5ccccc5C/C=C\C(=O)O[C@]35CO[C@@H]5C[C@@H]2O)C(C)=C1C4(C)C [Compound 15d] | at least 20 times | 100 | slightly more cytotoxicity than PTX | –
2 | CC(=O)O[C@H]1C(=O)[C@@]2(C)[C@@H]3[C@H](OC(=O)c4ccccc4)[C@]4(O)C[C@H](OC(=O)[C@H](O)[C@@H](NC(=O)c5ccccc5)c5ccccc5CCCC(=O)O[C@]35CO[C@@H]5C[C@@H]2O)C(C)=C1C4(C)C [Compound 16d] | about 10 times | 100 | slightly more cytotoxicity than PTX | –
3 | CC(=O)O[C@H]1C(=O)[C@@]2(C)[C@@H]3[C@H](OC(=O)c4ccccc4)[C@]4(O)C[C@H](OC(=O)C(O)C(NC(=O)c5ccccc5)c5cccc(c5)OC/C=C\CCC(=O)O[C@]35CO[C@@H]5C[C@@H]2O)C(C)=C1C4(C)C (stereo partly shown) [Compound 16] | – | – | – | less than one-tenth the activity of Taxol
